Test results reported in US5965701A, “Kappa receptor opioid peptides” (priority 1997, dated 1999).
Values joined by “and” are separate entries in the source; they are usually repeats but may differ in a detail not shown here. Equal entries are not always repeated. Where a SMILES comes first, the peptide text is derived from it. [ ]: non-standard residue; d: D form. The star is where a group is joined. dPhe(3,4-Cl2) = N[C@H](Cc1ccc(Cl)c(Cl)c1)C(=O)O; dPhe(4-CH2NH2) = NCc1ccc(C[C@@H](N)C(=O)O)cc1; dPhe(4-Cl) = N[C@H](Cc1ccc(Cl)cc1)C(=O)O; dPhe(4-F) = N[C@H](Cc1ccc(F)cc1)C(=O)O; d2Nal = N[C@H](Cc1ccc2ccccc2c1)C(=O)O; d2Thi = N[C@H](Cc1cccs1)C(=O)O; NH(3-picolyl) = c1cncc(CN*)c1; NH(4-picolyl) = c1cc(CN*)ccn1; dNle = CCCC[C@@H](N)C(=O)O; Morpholide = C1CN(*)CCO1; Piperidide = C1CCN(*)CC1; NHBn = c1ccc(CN*)cc1; NHCH2CH2OH = OCCN*; X1 = C1CN(*)CCS1; NHBu = CCCCN*

What was measured:
[1] = target: T1, cloned human kappa (hKOR) receptor (Homo sapiens, UniProt P41145); experiment: biochemical; format: binding; settings: for μ/κ Ratio (binding affinity for KOR versus MOR): Ki MOR / Ki KOR; for Ki: read-out: Ki KOR
T1 construct: expressed in transfected cells; host or cells: HN9.10 (mouse hippocampal neuroblastoma), stably transfected

conscious male ICR mice = experiment: Mouse acetic acid writhing test (WT); format: in vivo; settings: for WT-ED50: i.v., 5 minutes before acetic acid i.p., writhes over 15 minutes; for % Antinociception 1 hr / % Antinociception 2 hr: submaximal effective dose i.v., percentage of the activity found at -5 min; for % Antinociception 1 hr: 60 min pretreatment; for % Antinociception 2 hr: 120 min pretreatment
Experimental: Selected peptides that are identified in Tables A-G have been further specifically subjected to in vivo testing for determination of duration of action of their opioid properties, and the results are reported in Table H hereinafter. The peptide numbers correspond to those in the earlier tables and the figures with regard to μ/K ratio are simply carried over for reference purposes. The in vivo testing is carried out using a mouse writhing test (WT) that is well-suited for determining the length of duration of antinociceptive biological activity. This test is described in detail in an article by G. A. Bentley et al., Br. J. Phamac., 73:325-332, 1981, and it employs conscious male ICR mice which are purchased from Harlan and which weigh between 20 and 30 grams. The mice are fasted for 12 to 16 hours prior to beginning the test. The nociceptive behavior, i.e. writhing, to be monitored is induced by the intraperitoneal (i.p.) administration of dilute acetic acid. 10 milliliters of 0.6% aqueous acetic acid is used per kg of body weight. Writhing is scored during the 15 minutes following acetic acid administration. In a first step, compounds are tested at 3 to 4 increasing doses, given by intravenous route, and at one unique pretreatment time (-5 minutes before acetic acid injection). […] In a second step, this submaximal effective dose for each specific peptide is administered at various pretreatment times (i.e. -5 minutes, -60 minutes, -120 minutes and -180 minutes) prior to the administration of the acetic acid in order to determine the duration of action. Throughout the test, a control group of mice are used which are administered only the vehicle without the candidate peptide. The number of writhes are counted over a 15-minute period, starting from the time of acetic acid injection, and bioactivity, i.e. antinociception, is expressed as a percentage, and is calculated as follows:
100×(writhes in control group-writhes in treated group)/writhes in
Values higher than 100% indicate greater antinociception than at the beginning of the experiment. It is felt that the opioid peptide should be effective to reduce writhing by at least about 25% at a time of 1 hour to be considered to have long duration of in vivo action.
In addition to using this test to determine duration of antinociceptive activity, it is also used to measure the in vivo biopotency (short term) of the peptide. This value is given in the table under the heading WT-ED50 in milligrams per kg of body weight. The value is a measure of the dosage necessary to reduce the number of writhes in the mouse being tested by 50% (as compared to a control mouse) over a period of 15 minutes.

[2] = target: T2, cloned human mu opioid (hMOR) receptor (Homo sapiens, UniProt P35372); experiment: Competition binding at cloned hMOR, displacement of 3H-DAMGO; settings: hMOR stably expressed in HN.9.10 cells, read-out: Ki MOR
T2 construct: expressed in transfected cells; host or cells: HN9.10 (mouse hippocampal neuroblastoma), stably transfected
T2 sequence (P35372 whole entry): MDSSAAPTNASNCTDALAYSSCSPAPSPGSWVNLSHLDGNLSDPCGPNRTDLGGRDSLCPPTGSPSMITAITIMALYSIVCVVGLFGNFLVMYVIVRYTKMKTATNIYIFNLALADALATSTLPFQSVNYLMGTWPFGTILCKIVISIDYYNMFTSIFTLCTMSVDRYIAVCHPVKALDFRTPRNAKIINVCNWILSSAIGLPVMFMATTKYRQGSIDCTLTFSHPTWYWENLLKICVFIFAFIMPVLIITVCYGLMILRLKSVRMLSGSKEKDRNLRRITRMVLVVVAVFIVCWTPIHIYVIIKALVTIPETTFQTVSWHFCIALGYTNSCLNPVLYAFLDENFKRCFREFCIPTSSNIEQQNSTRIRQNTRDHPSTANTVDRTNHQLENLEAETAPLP

T1 sequence (P41145 whole entry): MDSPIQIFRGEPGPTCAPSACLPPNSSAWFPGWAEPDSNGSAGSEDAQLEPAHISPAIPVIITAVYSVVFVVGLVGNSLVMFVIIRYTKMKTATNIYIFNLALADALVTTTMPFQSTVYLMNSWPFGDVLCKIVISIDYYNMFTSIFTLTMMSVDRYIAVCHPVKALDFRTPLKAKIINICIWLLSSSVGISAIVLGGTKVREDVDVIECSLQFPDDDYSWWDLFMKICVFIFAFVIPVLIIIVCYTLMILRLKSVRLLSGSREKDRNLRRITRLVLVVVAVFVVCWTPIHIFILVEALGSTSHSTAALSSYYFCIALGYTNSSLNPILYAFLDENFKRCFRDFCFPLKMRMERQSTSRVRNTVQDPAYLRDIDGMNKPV

| Compound | μ/κ Ratio (binding affinity for KOR versus MOR) [1] | WT-ED50 (conscious male ICR mice) | % Antinociception 1 hr (conscious male ICR mice) | Ki [1] | Ki [2] | % Antinociception 2 hr (conscious male ICR mice) |
| --- | --- | --- | --- | --- | --- | --- |
| H-D-Phe-D-Phe-D-Nle-D-Arg-NH-4-Ahz [Peptide 41] | 12,000 |  |  |  |  |  |
| CCCCNC(=O)[C@@H](CCCNC(=N)N)NC(=O)[C@@H](CCCC)NC(=O)[C@@H](Cc1ccccc1)NC(=O)[C@H](N)Cc1ccccc1 [Peptide 4, H-D-Phe-D-Phe-D-Nle-D-Arg-NHBu] (H-[dF][dF][dNle][dR]-NHBu) | 7,200 | 0.3 mg/kg and 0.30 mg/kg | 49.3% | 0.19 nM | 1370 nM |  |
| H-D-CMP-D-Phe-D-Nle-D-Arg-NH(4Pic) [Peptide 43] | 2,500 |  |  |  |  |  |
| CCCC[C@@H](NC(=O)[C@@H](Cc1ccccc1)NC(=O)[C@H](N)Cc1ccccc1)C(=O)N[C@H](Cc1ccc(CNC(=N)N)cc1)C(=O)N1CCOCC1 [Peptide 58, H-D-Phe-D-Phe-D-Nle-D-Gmf-Mor] | 6,500 | 0.040 mg/kg |  | 0.46 nM | 3010 nM |  |
| H-D-Phe-D-Phe-D-Lcu-D-Lys-NH(4Pic) [Peptide 47] | 30,000 |  |  |  |  |  |
| CCCC[C@@H](NC(=O)[C@@H](Cc1ccccc1)NC(=O)[C@H](N)Cc1ccccc1)C(=O)N[C@H](CCCNC(=N)N)C(=O)N1CCSCC1 [Peptide 10, H-D-Phe-D-Phe-D-Nle-D-Arg-Tmo] (H-[dF][dF][dNle][dR]-X1) | 25,000 | 0.067 mg/kg and 0.07 mg/kg | 81.6% | 0.09 nM | 2260 nM | 47.5% |
| CC(C)C[C@@H](NC(=O)[C@@H](Cc1ccc(Cl)cc1)NC(=O)[C@H](N)Cc1cccs1)C(=O)N[C@H](CCCNC(=N)N)C(=O)N1CCOCC1 [Peptide 59, H-D-Ala(2Thi)-D-4Cpa-D-Leu-D-Arg-Mor] (H-[d2Thi][dPhe(4-Cl)][dL][dR]-Morpholide) |  |  |  | 0.25 nM | 3360 nM |  |
| H-D-Phe-D-Phe-D-Acp-D-Arg-NH(4Pic) [Peptide 44] | 8,200 |  |  |  |  |  |
| H-D-Phe-D-Phe-D-Nle-D-Har-Mor [Peptide 51] | 12,000 |  |  |  |  |  |
| CC(C)C[C@@H](NC(=O)[C@@H](Cc1ccc(Cl)cc1)NC(=O)[C@H](N)Cc1cccs1)C(=O)N[C@H](CCCNC(=N)N)C(=O)NCc1ccncc1 [Peptide 64, H-D-Ala(2Thi)-D-4Cpa-D-Leu-D-Arg-NH(4Pic)] (H-[d2Thi][dPhe(4-Cl)][dL][dR]-{NH(4-picolyl)}) |  |  |  | 0.31 nM | 2380 nM |  |
| CCCC[C@@H](NC(=O)[C@@H](Cc1ccccc1)NC(=O)[C@H](N)Cc1ccccc1)C(=O)N[C@H](CCCNC(=N)N)C(=O)N1CCCCC1 [Peptide 12, H-D-Phe-D-Phe-D-Nle-D-Arg-Pip] (H-[dF][dF][dNle][dR]-Piperidide) | 7,000 | 0.07 mg/kg | 60.5% | 0.15 nM | 1050 nM | 53.6% |
| H-D-Phe-D-Phe-D-Nle-D-Har-NH(4Pic) [Peptide 50] | 9,300 |  |  |  |  |  |
| H-D-Phe-D-Phe-D-Lcu-D-Dbu-NH(4Pic) [Peptide 52] | 92,000 |  |  |  |  |  |
| CCCC[C@@H](NC(=O)[C@@H](Cc1ccccc1)NC(=O)[C@H](N)Cc1ccccc1)C(=O)N[C@H](CCCNC(=N)N)C(=O)NCCO [Peptide 9, H-D-Phe-D-Phe-D-Nle-D-Arg-NHhEt] (H-[dF][dF][dNle][dR]-NHCH2CH2OH) | 2,500 | 0.03 mg/kg | 72.5% | 0.4 nM | 1010 nM | 39.5% |
| H-D-Phe-D-Phe-D-Lcu-D-Dbu-Mor [Peptide 53] | 85,000 |  |  |  |  |  |
| CCCC[C@@H](NC(=O)[C@@H](Cc1ccccc1)NC(=O)[C@H](N)Cc1ccccc1)C(=O)N[C@H](CCCNC(=N)N)C(=O)NCc1ccccc1 [Peptide 14, H-D-Phe-D-Phe-D-Nle-D-Arg-NHBzl] (H-[dF][dF][dNle][dR]-NHBn) | 2,000 | 0.14 mg/kg | 36% | 0.44 nM | 890 nM |  |
| CCCC[C@@H](NC(=O)[C@@H](Cc1ccccc1)NC(=O)[C@H](N)Cc1ccccc1)C(=O)N[C@H](CCCNC(=N)N)C(=O)NC [Peptide 2, H-D-Phe-D-Phe-D-Nle-D-Arg-NHMe] (H-[dF][dF][dNle][dR]-NHMe) | 60,000 | 0.14 mg/kg | 70.5% | 0.06 nM | 3620 nM | 29.8% |
| CC(C)C[C@@H](NC(=O)[C@@H](Cc1ccc(Cl)cc1)NC(=O)[C@H](N)Cc1ccc(F)cc1)C(=O)N[C@H](CCCNC(=N)N)C(=O)N1CCOCC1 [Peptide 65, H-D-4Fpa-D-4Cpa-D-Leu-D-Arg-Mor] (H-[dPhe(4-F)][dPhe(4-Cl)][dL][dR]-Morpholide) |  |  |  | 0.17 nM | 1900 nM |  |
| H-D-Phe-D-Phe-D-CML-D-Oro-Mor [Peptide 46] | 14,000 |  |  |  |  |  |
| H-D-Phe-D-Phe-D-Lcu-D-Lys-NHPr [Peptide 48] | 18,000 |  |  |  |  |  |
| CCCC[C@@H](NC(=O)[C@@H](Cc1ccccc1)NC(=O)[C@H](N)Cc1ccccc1)C(=O)N[C@H](CCCNC(=N)N)C(=O)NCc1cccnc1 [Peptide 54, H-D-Phe-D-Phe-D-Nle-D-Arg-NH(3Pic)] (H-[dF][dF][dNle][dR]-{NH(3-picolyl)}) | 3,100 |  |  | 0.39 nM | 1220 nM |  |
| H-D-Phe-D-Phe-D-Nle-D-Arg-Ecp [Peptide 42] | 27,000 | 0.06 mg/kg | 45.3% |  |  | 29.4% |
| H-D-Phe-D-Phe-D-Nle-D-Arg-NH-4Nhz [Peptide 40] | 3,800 |  |  |  |  |  |
| H-D-Phe-D-Phe-D-Lcu-D-Lys-Mor [Peptide 49] | 92,000 |  |  |  |  |  |
| H-D-Phe-D-Phe-D-Hle-D-Arg-NH(4Pic) [Peptide 45] | 11,000 |  |  |  |  |  |
| CCCC[C@@H](NC(=O)[C@@H](Cc1ccccc1)NC(=O)[C@H](N)Cc1ccccc1)C(=O)N[C@H](Cc1ccc(CN)cc1)C(=O)NCC [Peptide 55, H-D-Phe-D-Phe-D-Nle-D-Amf-NHEt] (H-[dF][dF][dNle][dPhe(4-CH2NH2)]-NHEt) | 12,500 |  |  | 0.14 nM | 1750 nM |  |
| CC(C)C[C@@H](NC(=O)[C@@H](Cc1ccc(Cl)c(Cl)c1)NC(=O)[C@H](N)Cc1cccs1)C(=O)N[C@H](CCCNC(=N)N)C(=O)N1CCOCC1 [Peptide 61, H-D-Ala(2Thi)-D-3,4Cpa-D-Leu-D-Arg-Mor] (H-[d2Thi][dPhe(3,4-Cl2)][dL][dR]-Morpholide) | 10,400 |  |  | 0.15 nM | 1560 nM |  |
| CC(C)C[C@@H](NC(=O)[C@@H](Cc1ccc2ccccc2c1)NC(=O)[C@H](N)Cc1ccc(F)cc1)C(=O)N[C@H](CCCNC(=N)N)C(=O)N1CCOCC1 [Peptide 62, H-D-4Fpa-D-2Nal-D-Leu-D-Arg-Mor] (H-[dPhe(4-F)][d2Nal][dL][dR]-Morpholide) | 3,500 |  |  | 0.33 nM | 1140 nM |  |
